Results on two molecules are retold here after publication PMC4037565 (Organic & biomolecular chemistry, 2013).

pKd: −log10 of the molar value. Square brackets hold non-standard residues; d marks the D form. Peptide text beside a SMILES is read from it. Lys(N3) = [N-]=[N+]=NCCCC[C@H](N)C(=O)O; Orn = NCCC[C@H](N)C(=O)O; Pra = C#CC[C@H](N)C(=O)O

For series [1] the following is noted: read-out: Kd / binding constant for ATP; parent peptide; cited from earlier work.
A short description of series [2]: Solubility under NMR/CD buffer conditions. The format is physicochemical. To be noted: 50 mM KD2PO4, pH 7, 20°C.

Regarding Ac-RWVKVNGOWIKQ-NH2 [WKWK], the pKd in series [1] is 3.77.
On to `C#CC[C@H](NC(=O)[C@H](CCCNC(=N)N)NC(C)=O)C(=O)N[C@H](C(=O)N[C@@H](CCCCN)C(=O)N[C@H](C(=O)N[C@@H](CC(N)=O)C(=O)NCC(=O)N[C@@H](CCCN)C(=O)N[C@@H](Cc1c[nH]c2ccccc12)C(=O)N[C@H](C(=O)N[C@@H](CCCCN=[N+]=[N-])C(=O)N[C@@H](CCC(N)=O)C(N)=O)[C@@H](C)CC)C(C)C)C(C)C` [NHB-rev-U] (Ac-R[Pra]VKVNG[Orn]WI[Lys(N3)]Q-NH2), for which the “solubility (observation)” value in series [2] was “not fully soluble and formed a gel-like substance”.
